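Five concentrations, 48 hours, 96-well plates. GI50 marks 50% less growth.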 Active and inactive are the calls of the source. Cut-off read from the data, not from the text of the source: active = GI50 up to about 1.1 µM and inactive = higher.
Assays:
Test in all cases: NCI tumour cell line growth inhibition, 48 h
[1] = system: ACHN
[2] = system: BT-549
[3] = system: CCRF-CEM
[4] = system: COLO 205
[5] = system: DU-145
[6] = system: EKVX
[7] = system: HCT-116
[8] = system: HCT-15
[9] = system: Hs-578T
[10] = system: KM12
[11] = system: LOX IMVI
[12] = system: MOLT-4
[13] = system: NCI/ADR-RES
[14] = system: OVCAR-4
[15] = system: SNB-19
[16] = system: TK-10
[17] = system: UACC-257
[18] = system: UACC-62
[19] = system: SR

| Structure (SMILES) | GI50 [1] | GI50 [2] | GI50 [3] | GI50 [4] | GI50 [5] | GI50 [6] | GI50 [7] | GI50 [8] [µM] | GI50 [9] | GI50 [10] | GI50 [11] | GI50 [12] | GI50 [13] | GI50 [14] | GI50 [15] | GI50 [16] | GI50 [17] | GI50 [18] | GI50 [19] |
| --- | --- | --- | --- | --- | --- | --- | --- | --- | --- | --- | --- | --- | --- | --- | --- | --- | --- | --- | --- |
| O=C1C[C@@H](c2ccc(O)cc2)[C@@]2(O1)C(=O)O[C@H]([C@@H](O)CO)[C@@H]2O | > 100 µM (inactive) | > 100 µM (inactive) | > 100 µM (inactive) | > 100 µM (inactive) | > 100 µM (inactive) | > 100 µM (inactive) | > 100 µM (inactive) | > 100 | > 100 µM (inactive) | > 100 µM (inactive) | > 100 µM (inactive) | > 100 µM (inactive) | > 100 µM (inactive) | > 100 µM (inactive) | > 100 µM (inactive) | > 100 µM (inactive) | > 100 µM (inactive) | > 100 µM (inactive) |  |
| O=C1C2=C(SCCS2)C(=O)c2c(Sc3ccc(Cl)cc3)c(Sc3ccc(Cl)cc3)c(Sc3ccc(Cl)cc3)c(Sc3ccc(Cl)cc3)c21 | > 100 µM (inactive) | > 100 µM (inactive) | 11.6 µM (inactive) | > 100 µM (inactive) | > 100 µM (inactive) | > 100 µM (inactive) | > 100 µM (inactive) | > 100 | 8.49 µM (inactive) | > 100 µM (inactive) |  | 17.1 µM (inactive) | > 100 µM (inactive) | > 100 µM (inactive) | 25.2 µM (inactive) |  | > 100 µM (inactive) | 23.7 µM (inactive) | 21.8 µM (inactive) |
| NC1CC2NC3CCCCC3NC2CC1N (stereo not given) | 24.9 µM (inactive) | > 100 µM (inactive) | 22.5 µM (inactive) | 42.5 µM (inactive) | 50.2 µM (inactive) | 25.4 µM (inactive) | 24.1 µM (inactive) | 21.7 | 27.9 µM (inactive) | 33.7 µM (inactive) | 31.6 µM (inactive) | 24.9 µM (inactive) | 30.1 µM (inactive) |  | 36.2 µM (inactive) | 41.8 µM (inactive) | 37.9 µM (inactive) | 33.6 µM (inactive) | 29.2 µM (inactive) |
| COC(=O)c1cnn2c1n[n+]([O-])c1ccccc12 | > 100 µM (inactive) | > 100 µM (inactive) | > 100 µM (inactive) | 85.5 µM (inactive) | > 100 µM (inactive) | > 100 µM (inactive) | > 100 µM (inactive) |  | > 100 µM (inactive) | > 100 µM (inactive) | > 100 µM (inactive) | > 100 µM (inactive) | > 100 µM (inactive) |  |  | > 100 µM (inactive) | > 100 µM (inactive) | > 100 µM (inactive) | > 100 µM (inactive) |
| COc1ccc(/C=C/c2ccnc3ccccc23)c(OC)c1 | 9.75 µM (inactive) | 7.18 µM (inactive) | 4.97 µM (inactive) | 4.34 µM (inactive) | > 10 µM (inactive) | 5.19 µM (inactive) | 3.56 µM (inactive) | 6.49 | 5.98 µM (inactive) | 6 µM (inactive) | 7.71 µM (inactive) | 4.54 µM (inactive) | 3.86 µM (inactive) | > 10 µM (inactive) | > 10 µM (inactive) | > 10 µM (inactive) | > 10 µM (inactive) | 5.16 µM (inactive) |  |
| Cc1c2c(n(C)c1C)C(=O)C1C(C2=O)C2(C)c3ccccc3C1(C)c1ccccc12 (stereo not given) | > 100 µM (inactive) | > 100 µM (inactive) | > 100 µM (inactive) | > 100 µM (inactive) | > 100 µM (inactive) | > 100 µM (inactive) | > 100 µM (inactive) | > 100 | > 100 µM (inactive) | > 100 µM (inactive) | > 100 µM (inactive) | > 100 µM (inactive) | > 100 µM (inactive) |  | > 100 µM (inactive) | > 100 µM (inactive) | > 100 µM (inactive) | > 100 µM (inactive) | 24.4 µM (inactive) |
